Experimental data: patent US12590118B2, “Salt and crystal form of steroid derivative regulator” (Shanghai Hansoh Biomedical Co., Ltd., priority 2019, dated 2026)

What was measured:
[1] = Competitive experiment of different crystal forms of the free base; format: physicochemical; settings: 40° C.
Procedure: The stability among crystal forms I, II and III of the free base of Example 40 was investigated, so as to select the stable crystal form.
Multiple portions of about 20 mg of crystal forms I, II and III of the free base of Example 40 were accurately weighed, and mixed in pairs in equal amounts. Methyl tert-butyl ether and n-heptane were added respectively, and the resulting mixture was stirred at 40° C. for 7 days. The mixture was centrifuged at high speed, the supernatant was removed, and the resulting solid precipitate was vacuum dried in an oven at 40° C. and characterized by XRPD.

ICR mice = assay: Forced swimming model in mice; format: in vivo; settings: for Mean (immobility, %): floating time/240 s; for immobility time during the latter four minutes compared with that of the model group: forced swimming, ICR mice
Summary of the method: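 Male ICR mice (25-35 g), 12 per group, dosed intragastrically at brain Tmax with 10 mg/kg or 5 mg/kg p.o. in 0.5% CMC-Na + 1% Tween 80. Forced swim 0.5-1 h post-dose for 6 min in 25-26° C. water, 18 cm deep. Immobility over last 4 min, given as floating time percentage of 240 s.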

CD-1 mice = assay: PTZ-induced epilepsy model in mice; format: in vivo; settings: 3 mpk p.o., PTZ 120 mg/kg s.c., 30 min observation
Procedure: The PTZ-induced epilepsy model in CD-1 mice was established, and the antiepileptic effect of the compounds of Example 2, Example 40, Example 41 and Example 52 was evaluated using this model.
50 male CD-1 mice were purchased from Beijing Vital River Laboratory Animal Technology Co. Ltd. The test animals were adapted at the animal room in the third building of Shanghai ChemPartner Co., Ltd for 7 days before the experiment. The average body weight of the animals on the test day was 32.2±0.2 grams. Feeding environment: 5 animals/cage, room temperature 23±2° C., 12/12 hours of light and dark cycle, free access to food and water.
The mice were randomly grouped for the experiment on the test day.
Compounds of Example 2, Example 40, Example 41 and Example 52 (prepared by the applicant). The test compounds were stored in a refrigerator at 4° C.
4.2.3 Test Equipments • 1 ml sterile disposable syringe with needle (purchased from Zhejiang Kangdelai Medical Devices Co., Ltd.) • Pipette: Eppendorf Research Plus (100-1000 μL) • Vortex mixer: Kylin-Bell Vortex 5 • Ultrasonic instrument: JL-360 ultrasonic cleaner • Balance: METTLER TOLEDO XS204 precision balance • Balance: METTLER TOLEDO XS6002S electronic balance • Plexiglass box: 25 cm length*15 cm width*15 cm height with one opaque side wall, custom made by Suzhou Fengshi Laboratory Animal Equipment Co., Ltd • 3-channel timer: Oregon/Model NO. WB-388. 4.2.4 Test Animal Grouping • 1) Vehicle/PTZ: 0.5% CMC-Na+1% Tween-80 (10 ml/kg, p.o.), administered 0.5 hr before the PTZ administration; PTZ ([…], s.c.), administered before the experiment; • 2) 3 mg/kg of the compounds of Examples/PTZ: the compounds of Example 2, Example 40, Example 41 and Example 52 (3 mg/kg, 10 ml/kg, p.o.), administered 0.5 hr before the PTZ administration; PTZ ([…], s.c.), administered before the experiment. 4.3 Experimental Procedures 4.3.1 Solvent Formulation • 1) 0.5% CMC-Na+1% Tween-80 (administration volume: 10 mL/kg):
1 g of sodium carboxymethyl cellulose was precisely weighed and added to a 250 mL solvent bottle, then 150 mL of double-distilled water was added. The mixture was stirred at room temperature for 4 hours with a magnetic stirrer to obtain a uniform and clear solution. 2 mL of Tween-80 was slowly added, and the mixture was stirred at room temperature for 3 hours to obtain a uniform and clear solution. The solution was slowly transferred to a 200 mL volumetric flask, and double distilled water was added to the constant volume of 200 mL. The solution was transferred to a 250 mL solvent bottle, and stirred for 1 hour with a magnetic stirrer to obtain a uniform and clear solution. • 2) 30% hydroxypropyl-p-cyclodextrin:
248 mg of PTZ was precisely weighed and added to a 40 mL brown flask, then 20.667 mL of physiological saline was added. The mixture was mixed by vortex for 2 minutes, and treated by ultrasound at room temperature for 2 minutes to obtain a uniform and clear solution (concentration: 12 mg/mL). • 2) 0.3 mg/mL of the compounds of Example 5 or Example 23 (dose: 3 mg/kg; administration volume: 10 mL/kg): […]
4.4 Adaptation to the Environment
The mice were randomly grouped, marked and weighed; 10 mice per group. The test compound was administered orally at an administration volume of 10 mL/kg 30-60 minutes before the PTZ administration.
PTZ (120 mg/kg) was administrated subcutaneously before the experiment observation, and this time point was recorded as the observation start point; after the administration of PTZ, the animal was immediately placed in the observation box and observed for 30 minutes, and the followings were recorded: a) the incubation period of the first clonic seizure, b) the incubation period of the first generalized tonic seizure, c) the number of clonic seizures, d) the number of generalized tonic seizures, e) the time when the animal died.
All measurement data were expressed as Mean±SEM, and analysed with Prism 6.0 statistical software.

Row | SMILES | solubility in n-heptane (in words) [1] | Mean (immobility, %) (ICR mice; dose 10 mpk p.o.) | immobility time during the latter four minutes compared with that of the model group (ICR mice) | Incubation period of the clonic seizure (sec) Mean ± SEM (CD-1 mice) | Incubation period of the generalized tonic seizure (sec) Mean (CD-1 mice) | Mortality rate (%) (CD-1 mice) | Number of clonic seizures Mean (CD-1 mice) | Number of generalized tonic seizures Mean (CD-1 mice) | Time when the animal died (sec) Mean (CD-1 mice) | Mean (immobility, s) (ICR mice; dose 10 mpk p.o., latter four minutes of 6 min swim)
1 | C[C@@H]1C[C@H](C(=O)Cn2ccc(C#N)n2)[C@@]2(C)CC[C@H]3[C@@H](CC[C@@H]4C[C@](C)(O)CC[C@@H]43)[C@H]12 [Crystal form I, 1-(2-((3R,5R,8R,9R,10S,13S,14S,15R,17S)-3-Hydroxy-3,13,15-trimethylhexadecahydro-1H-cyclopenta[a]phenanthren-17-yl)-2-oxoethyl)-1H-pyrazole-3-carbonitrile] | almost insoluble | – | – | – | – | – | – | – | – | –
2 | C[C@@]1(O)CC[C@H]2[C@H](CC[C@@H]3[C@@H]2CC[C@@]2(C)[C@H]3[C@@H]3C[C@@H]3[C@@H]2C(=O)Cn2ccc(C#N)n2)C1 [Example 2, 1-(2-((2R,4aS,4bR,6aS,7S,7aS,8aR,8bR,8cR,10aR)-2-Hydroxy-2,6a-dimethyloctadecahydrocyclopropa[4,5]cyclopenta[1,2-a]phenanthren-7-yl)-2-oxoethyl)-1H-pyrazole-3-carbonitrile] | – | 28.50% | very significantly different | 902.9 ± 200.8 s | 1736.0 ± 63.2 s | 10% | 1.3 ± 0.3 | 0.1 ± 0.1 | 1739.8 ± 60.2 s | –
3 | C[C@@H]1C[C@H](C(=O)Cn2ccc(C#N)n2)[C@@]2(C)CC[C@H]3[C@@H](CC[C@@H]4C[C@](C)(O)CC[C@@H]43)[C@H]12 [Example 40, 1-(2-((3R,5R,8R,9R,10S,13S,14S,15R,17S)-3-Hydroxy-3,13,15-trimethylhexadecahydro-1H-cyclopenta[a]phenanthren-17-yl)-2-oxoethyl)-1H-pyrazole-3-carbonitrile] | – | 35.30% | very significantly different | 1308.1 ± 170.1 s | 1800.0 ± 0.0 s | 0% | 0.5 ± 0.2 | 0.0 ± 0.0 | 1800.0 ± 0.0 s | 84.90 s
